Measured values from ChEMBL document CHEMBL1138174, “Novel HIV-1 integrase inhibitors derived from quinolone antibiotics” (J Med Chem, 2006).

What was measured:
MT4 [1] = test: Cytotoxic activity against human MT4 cells infected with HIV1 by MTT assay; type: functional
MT4 [2] = test: Antiviral activity against HIV1 3b in human MT4 cells; type: functional, cell-based
[3] = biological target: Human immunodeficiency virus type 1 integrase (Human immunodeficiency virus 1, UniProt Q7ZJM1); test: Inhibition of recombinant HIV1 integrase strand transfer activity
Human immunodeficiency virus type 1 integrase, sequence (Q7ZJM1 whole entry): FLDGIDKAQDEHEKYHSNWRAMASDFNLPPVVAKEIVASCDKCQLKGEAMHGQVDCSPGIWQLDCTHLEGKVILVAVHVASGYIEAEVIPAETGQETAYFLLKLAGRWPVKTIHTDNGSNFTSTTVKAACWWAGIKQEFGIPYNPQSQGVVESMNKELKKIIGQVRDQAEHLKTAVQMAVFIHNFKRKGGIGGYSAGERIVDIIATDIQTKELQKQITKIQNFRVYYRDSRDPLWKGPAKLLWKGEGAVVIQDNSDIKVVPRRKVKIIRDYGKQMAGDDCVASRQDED

Row | Compound | IC50 [3] [nM] | Activity (MT4 [1]) [µM] | EC50 (MT4 [2]) [nM]
1 | COc1cc2c(cc1Cc1cccc(Cl)c1F)c(=O)c(C(=O)O)cn2[C@H](CO)C(C)C |  | 4 | 0.9
2 | O=C(O)c1c[nH]c2ccc(Cc3cccc(Cl)c3F)cc2c1=O | 43.5 | >12 | 805
3 | O=C(O)c1cnc2ccc(Cc3ccccc3)cc2c1O | 1600 | >30 | > 30000
4 | CC(C)[C@@H](CO)n1cc(C(=O)O)c(=O)c2cc(Cc3cccc(Cl)c3F)ccc21 |  | 14 | 7.5

Now from value to compound, other results behind:

Row | IC50 [3] [nM] | Compound | Activity (MT4 [1]) [µM] | EC50 (MT4 [2]) [nM]
5 | 24.2 | O=C(O)c1cn(CCO)c2ccc(Cc3cccc(Cl)c3F)cc2c1=O | >15 | 76.3
6 | 9.1 | COc1cc2c(cc1Cc1cccc(Cl)c1F)c(=O)c(C(=O)O)cn2CCO | 5.3 | 17.1
7 | 22.8 | O=C(NCc1ccc(F)cc1)c1nc(N2CCCCS2(=O)=O)c2cccnc2c1O | 0.7 | 3.6
